Laboratory results reported in US20050256179A1, “Selective pharmacologic inhibition of protein trafficking and related methods of treating human diseases” (priority 2003, published 2005).
Values after ≈ are worked out from the molar mass of the structure shown.

Legend:
[1] = test system: rat basophilic leukemia (RBL) cells; experiment: Degranulation of RBL cells; format: cell-based; conditions: induced with PMA/ionomycin or IgE-antigen complexes, not shown
Excerpt: The proposed mechanism of the AVP compounds on intracellular protein transit also allows certain predictions as to other effects and non-effects that these compounds might share. For example, inhibition of vesicle fusion or budding between the ER and golgi should not affect exocytosis as would be expected of a post-golgi active compound such as Monensin. AVP 893 has minimal effects on the expression of proteins involved in exocytosis, particularly VAMP, SNAP23 (non-neuronal cells), and SNAP25 (neuronal cells).

[2] = test system: 60 kinase assays; experiment: Kinase and biochemical assay screens (Upstate panel); conditions: concentrations of less than 1 μg/ml; 1 μM in 60 kinase assays
Excerpt: In an effort to understand how these compounds might be acting at the cellular and molecular level, several screens of drug activity were initiated. The first 2 screens were designed to test the activity of drug on certain binding events and the activity of a variety of enzymes in vitro (FIGS. 14 and 15).

[3] = test system: T cells from mouse spleen and human PBL; experiment: T cell cytokine responses in vitro (Luminex beads); format: cell-based
Excerpt: These series of compounds were initially identified on the basis of their IgE-blocking activity in an ex vivo IgE response protocol (FIG. 2), and the biological activity of all analogs are characterized on the basis of their activity in this assay. Activity in the ex vivo assay is corroborated in the in vitro assay of B cell response to 1L-4/anti-CD40 Ab-stimulated IgE in human PBL (FIG. 3) using standard procedures, and mouse splenic B cells (not shown). Drug action on T cells was shown by testing T cell cytokine responses to various stimuli in vitro. The response of a cadre of cytokines and chemokines to several alternative stimuli was tested in T cells from both mouse spleen and human PBL. T cells were isolated from murine spleen and cultured for 16 hours in the presence of stimulus+/−AVP 13358. Supernatants were quantified for cytokines using Luminex beads. All cytokines achieved levels of at least 200 pg/ml and 10-fold higher than background (FIG. 4). T cells were isolated from donor PBL and cultured for 16-36 hours in the presence of Phytohemaglutin (PHA, 5 μg/ml) and ConA (5 μg/ml)+/−AVP 13358. Supernatants were quantified for cytokines using Luminex beads (FIG. 5). […] Total protein was assessed by the SRB assay, as adopted for many of the proliferation experiments outline below.

[4] = test system: CD23 and the IL-4 receptor on murine B cells and human monocytes; experiment: Induction of CD23 and IL-4 receptor expression; format: cell-based, mouse; conditions: murine B cells and human monocytes in vitro
[5] = test system: GS28; experiment: GS28 expression by Western blotting; format: cell-based; conditions: MOLT4, Hs578T, H-460, overnight
Protocol: The culture medium was removed by vacuuming (for attached cells) or by low speed centrifugation (for suspension cells) for 5-7 minutes at room temperature. The cells were wasedh twith PBS, spun at 1200 rpm and the cell pellets were kept on ice. 300 μl/2.0×10^7 cells of ice cold lysis buffer was added with freshly added protease inhibitors. Cell pellets were gently resuspended and incubated on ice for at least 30 min, vortexed a few times during incubation. Cell lysate was spun at 14,000 rpm for 2-5 min at 4° C. The supernatant was transferred to a new microfuge tube and the pellet was discarded. An aliquot of sample was mixed with an equal volume of 2× sample buffer (InVitrogen), and stored at −80° C. Protein concentration was determined by using “BCA protein assay reagent kit” from Pierce.
Protein samples (in sample buffer) were boiled for 1-3 minutes and put on ice. Same amount of protein were loaded on the NuPage gel (InVitrogen). After the electrophoresis was complete, proteins were transferred from the gel to a PVDF membrane using the electro-blotting apparatus from InVitrogen; the voltage was set to 25 for 2-3 hr. Block non-specific binding by incubating membrane with 5% milk (in PBS, 0.1% tween 20) for at least 30 min at room temperature or overnight at 4° C. The blocked membrane was incubated with primary antibody (See TABLE 2) diluted in 5% milk for 1 hour at room temperature. Optimal antibody dilution depends on the company, the amount of protein. Dilutions of 1:1000 were generally used for the primary antibodies from Santa Cruz. The membrane was washed with PBS, 0.1% tween 3-4 times 5 mins. The membrane was incubated for 30-60 minutes at room temperature with horseradish peroxidase (HRP) conjugated secondary antibody diluted in 5% milk. We usually used 1:4000 dilution for the secondary antibody from Santa Cruz. The membrane was washed 3-4 times with PBS, 0.1% tween, each time 15 minutes. The detection solutions A and B were mixed in a ratio 40:1 and Pipetted onto the membrane, and incubated for 5 min at RT. A sheet of Hyper film ECL was placed on the top of the membrane in the dark and exposed for 1 min, or adjust accordingly.
To further examine the putative protein trafficking effects of AVP 893, other proteins in this pathway were tested in vitro in B16 and other cell lines. The effect of AVP 893 on cellular proteins was corroborated in B16 cells and extended to include a time-course (FIG. 17). B16-F10 tumor cells were seeded in T75 flasks at 20% confluence and cultured overnight. AVP 893 (100 ng/ml) was added to several flasks and one flask of cells was harvested at several time points following addition of compound. Lysates were prepared, separated by electrophoresis, and probed with antibody as described above in the general Western blotting protocol. Drug effects on GS28 and nicastrin paralleled each other and were progressively stronger with longer drug incubations. […] Other cell lines were tested for their expression of GS28 and nicastrin and found to respond similarly to drug, although quantitative differences were evident. Tumor cell lines found to respond similarly to AVP 893 include CAK1, SF295, PC3, MOLT4, Neuro2a, and RBL (FIGS. 18, 19, and 20). For the experiment shown in FIG. 18, LOX, CAKI, and 3T3 cell lines were treated as described for FIG. 17. For the results shown in FIG. 19, SF295, PC3, MOLT-4, and Neuro2a cells were treated as described for FIG. 17. For the results shown in FIG. 20, LOX, 3T3, and RBL cell lines were treated with varying concentrations of AVP 893 as described for FIG. 17. The effects on LOX cells were less evident. […] Levels of calnexin, a resident ER protein used as a control, were unchanged in drug-treated cells.

[6] = test system: tumor cell lines (NCI 60-cell screening panel); conditions: NCI 60-cell screen, data from the NCI database; cited from earlier work
[7] = test system: Mannosidase II; experiment: Mannosidase II immunocytochemistry; format: cell-based; conditions: 1 hr of treatment, immunocytochemistry
Protocol: GS15, GS28, GPP130, and Mannosidase II, sparing the golgi structural protein GM-130 and having little effect on the Rab GTPase Rab6. Furthermore, these affects were most pronounced following overnight (16-20 hr) incubations with AVP 893, although some affects at early time points were seen. These conclusions were drawn from the western blot analysis (FIG. 29), as well as from the immunocytochemical studies (FIGS. 30-31).
Additional evidence that AVP 893 has unique activity against resident golgi proteins (e.g. Mannosidase II), was found using both shorter durations of drug exposure and immunocytochemistry instead of western blot analysis (FIG. 43).

[8] = test system: HCC 1806; experiment: Inhibition of tumor cell proliferation in vitro (SRB total protein); format: cell-based; conditions: in-house head-to-head, about 72 hours
Protocol: (§1) For a typical screening experiment, cells are inoculated into 96 well microtiter plates in 100 μl at plating densities ranging from 5,000 to 40,000 cells/well depending on the doubling time of individual cell lines. After cell inoculation, the microtiter plates are incubated at 37° C., 5% or 10% CO2—depending on the cell line and media—95% air and 100% relative humidity for 24 h prior to addition of experimental drugs. After 24 h, two plates of each cell line are fixed in situ with TCA, to represent a measurement of the cell population for each cell line at the time of drug addition. Following drug addition, the plates are incubated for an additional 48 h at 37° C., 5%/10% CO2, 95% air, and 100% relative humidity. For adherent cells, the assay is terminated by the addition of cold TCA. Cells are fixed in situ by the gentle addition of 50 μl of cold 50% (w/v) TCA (final concentration, 10% TCA) and incubated for 60 minutes at 4° C. The supernatant is discarded, and the plates are washed five times with tap water and air-dried. Sulforhodamine B (SRB) solution (10011) at 0.4% (w/v) in 1% acetic acid is added to each well, and plates are incubated for 10 minutes at room temperature. After staining, unbound dye is removed by washing five times with 1% acetic acid and the plates are air-dried. Bound stain is subsequently solubilized with 10 mM trizma base, and the absorbance is read on an automated plate reader at a wavelength of 515 nm. For suspension cells, the methodology is the same except that the assay is terminated by fixing settled cells at the bottom of the wells by gently adding 50 μl of 80% TCA (final concentration, 16% TCA). Using the seven absorbance measurements [time zero, control growth, and test growth in the presence of drug at the five concentration levels], the percentage growth is calculated at each of the drug concentrations levels.
(§2) Brefeldin A was tested by the NCI for inhibition of tumor cell proliferation in the 60-cell screen. The NCI 60-cell screen was performed essentially as described for FIG. 9. Data available from the NCI database for Brefeldin A was compared with more recent AVP 893 data. […] Several tumor cell lines were cultured in the presence of either AVP 893 or Brefeldin A for about 72 hours before assessing proliferation response by measuring total protein (SRB), as described for FIG. 9. The results of the head-to-head comparisons performed in-house also show substantial variation in the relative proliferative responses of cells to Brefeldin A and AVP 893 in vitro (TABLE 3).

[9] = test system: MOLT-4; experiment: as above; format: cell-based; conditions: in-house head-to-head, about 72 hours, SRB
Protocol: as §1, §2

[10] = test system: NCI H-460; experiment: as above; format: cell-based; conditions: in-house head-to-head, about 72 hours, SRB
Protocol: as §1, §2

[11] = test system: Hs578T; experiment: as above; format: cell-based; conditions: in-house head-to-head, about 72 hours, SRB
Protocol: as §1, §2

SMILES | degranulation [1] | activity in kinase and biochemical assays [2] | IL-1 levels ([3]; in vitro) | levels of cytokines including IL-4, IL-5, IL-13 ([3]; stimulated T cells, 16-36 hours) | induction of CD23 and IL-4 receptor [4] | GS28 expression [5] | concentrations inhibiting proliferation of virtually all cells [6] | Mannosidase II staining pattern [7] | IC50 [8] | IC50 [9] | IC50 [10] | IC50 [11]
O=C(Nc1ccccn1)c1ccc2[nH]c(-c3ccc(NC(=O)C45C[C@H]6C[C@@H](C4)C[C@@H](C5)C6)cc3)nc2c1 [AVP 13358] | does not inhibit degranulation | no drug activity was observed | does not affect IL-1 levels | potently suppressed the levels of most cytokines | potently blocked the induction of these receptors | – | – | – | – | – | – | –
C[C@H]1CCC/C=C/[C@@H]2C[C@H](O)C[C@H]2[C@H](O)/C=C/C(=O)O1 [Brefeldin A, reference compound] | – | – | – | – | – | variable effects | 10 to 100 nM | completely dispersed | 0.03 µg/mL (≈ 0.107 µM) | 0.003 µg/mL (≈ 0.0107 µM) | 0.005 µg/mL (≈ 0.0178 µM) | 0.1 µg/mL (≈ 0.357 µM)
